Read-outs that look alike come from different tables or passages of the source.
Assays:
[1] = rat, in vivo, po, 100 mg/kg, 4 h
Protocol: (§2) Each compound of the present invention was dissolved in distilled water for injection and orally administered to rats (Lewis strain line, male, body weight: about 200 g) at a dose of 100mg/kg. From 30 minutes to 4 hours after the administration, a series of blood chronologically collected from rat fundus oculi were centrifuged (3000rpm for 10 minutes at 4°C) to give plasma samples. Each plasma sample (200 µl) was filtered through an ultrafiltration membrane by centrifugation at 1500 x G for 3 minutes using a micropartition UF unit (Centrifree-MPS-3: 30,000 MW cut-off, Amicon Corp., Beverly, MA). […] The reaction was stopped by adding 900 µl of 3% aqueous acetic acid to the reaction mixture. The fluorescence of the resulting solution was read using an excitation wavelength of 325 nm and an emission wavelength of 393 nm. The concentration of each test compound in rat plasma samples was calculated using a standard curve which was prepared based on a variety of doses.

[2] = molecular target: human fibroblast stromelysin (Homo sapiens, UniProt P08254); assay: Assay for inhibition of stromelysin (fluorescein-labeled casein substrate); type: biochemical
Protocol: (§1) Described below are assays for biological activities of the compounds according to the present invention, formulations, dosage forms and dosage levels thereof, and miscellaneous matters. The efficacy of the compounds represented by the formula (I) according to the present invention as inhibitors of human fibroblast collagenase (metalloproteinase involved in the breakdown of tissues) is determined by a procedure based on the method of Y. Murawaki et al., Journal of Hepatology, 18, p328-334 (1993). The efficacy of the compounds (I) of this invention as inhibitors of human fibroblast stromelysin is determined by a procedure based on the method of S. S. Twining, Anal. Biochem., 143, p30 (1984). The assay results obtained are shown hereinbelow, together with biological examples which illustrate embodiments of the assay protocols.
The efficacy of compounds of the present invention to act as inhibitors of human fibroblast stromelysin was determined by the procedure of Twining (Anal. Biochem., 143, p.30, 1984), compared with a reference compound.
Prostromelysin was activated by incubation with 20 µg/ml human plasmin at 37°C for 2 hours, and the reaction was stopped by addition of 2.8 mg/ml aqueous diisopropyl fluorophosphate. The inhibition was assayed using, as a substrate, fluorescein-labeled casein. To a solution of the substrate (1 mg/ml) in a 50 mM Tris-HCl buffer, pH 7.8, containing 10mM aqueous calcium chloride was added the activated stromelysin. The resultant solution was incubated at 37°C for 2 hours. The digestion of the substrate with the enzyme was stopped by addition of 5% trichloroacetic acid. Undigested substrates were precipitated by centrifugation at 3000 x g for 20 minutes. The supernatant was collected, followd by additon of a 0.5M Tris-HCl buffer, pH 8.5. The fluorescence was read using an excitation wavelength of 495 nm and an emission wavelength of 520 nm. The inhibitory potency of the compounds was calculated. […] The resulting assay data for representative examples are shown in Table 2, compared with the reference compound.

TNF-α Convertase = TNF-α Convertase (Homo sapiens, UniProt P78536); assay: Assay for inhibition of TNF-α production in LPS-stimulated, PMA-differentiated U937 cells
Protocol: Human monocytic leukemia cell line U937 (human histiocytic lymphoma cell line U937) cells were cultured in RPMI 1640 (Nissui Pharmaceutical Co., Ltd., Japan) supplemented with 5% fetal calf serum (FCS; IBL, Japan) in an incubator at 37°C under 5% CO2, then transferred to multiplates at a density of 1 x 10^6 cells/1 ml/well, and incubated overnight in the presence of 10^-7 M phorbol 12-myristate 13-acetate (Wako Pure Chemical Industries, Ltd., Japan) to form differentiated macrophage-like cells. To the resultant cells was added E. coli O127:B8 lipopolysaccaride (LPS, 0.1 µg/ml; Sigma) alone or along with each compound of the present invention, and the treated cells were then incubated for 6 hours in an incubator under 5% CO2 at 37°C. After the incubation, the cultures were collected and centrifuged at 3000 rpm for 10 minutes to give supernatants which were diluted with purified water and then assayed using a TNF-α assay kit, Genzyme (Table 3).

[3] = Assay for Oral Absorption in Rat (plasma level by MMP-3 inhibition bioassay); conditions: for AUC: male, Lewis
Protocol: as §2

[4] = molecular target: T1, human fibroblast collagenase (Homo sapiens, UniProt P03956); assay: Assay for inhibition of collagenase (fluorescein-labeled bovine type I collagen substrate); type: biochemical; conditions: activated human fibroblast procollagenase, 35°C, 2 hours, pH 7.5; read-out: Inhibition of MMP-1
T1 sequence (P03956 100-469): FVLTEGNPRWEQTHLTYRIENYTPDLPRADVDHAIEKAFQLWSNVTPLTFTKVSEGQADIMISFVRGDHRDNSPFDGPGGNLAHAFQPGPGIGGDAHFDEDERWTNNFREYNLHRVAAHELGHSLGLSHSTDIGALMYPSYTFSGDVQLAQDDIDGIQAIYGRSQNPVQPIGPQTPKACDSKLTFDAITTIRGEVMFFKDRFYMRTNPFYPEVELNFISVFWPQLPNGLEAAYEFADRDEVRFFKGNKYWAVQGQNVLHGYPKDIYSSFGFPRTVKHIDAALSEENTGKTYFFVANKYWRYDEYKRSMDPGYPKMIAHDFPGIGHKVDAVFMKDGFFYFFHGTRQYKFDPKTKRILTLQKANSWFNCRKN
Protocol: as §1
The efficacy of compounds of the present invention to act as inhibitors of human fibroblast collagenase was determined by the procedure of Y. Murawaki et al. (Journal of Hepatology, 18, p.328-334, 1993), compared with a reference compound.
Procollagenase was activated by incubation with 2 mM 4-aminophenylmercuric acetate (APMA) at 35°C for 2 hours. The inhibition was assayed using, as a substrate, fluorescein-labeled bovine type I collagen. To a solution of the substrate (0.5 mg/ml) in a 50 mM Tris-HCl buffer, pH 7.5, containing 0.4M aqueous sodium chloride and 10 mM aqueous […] was added the activated collagenase. The resultant solution was incubated at 35°C for 2 hours. The digestion of the substrate with the enzyme was stopped by addition of 80 mM o-phenanthroline, followed by addition of a porcine elastase solution formed by dissolving 25 µg/ml porcine elastase in the aforementioned Tris-HCl buffer. The mixture was incubated at 37°C for 10 minutes. To the resulting solution was added 70% ethanol, and a 170 mM Tris-HCl buffer, pH 9.5, containing 0.67M aqueous sodium chloride. Undigested substrates were precipitated by centrifugation at 3000 x g for 20 minutes. The supernatant was collected and the fluorescence was read using an excitation wavelength of 495 nm and an emission wavelength of 520 nm. The inhibitory potency of the compounds was calculated. […] The resulting assay data for representative examples are shown in Table 1, compared with the reference compound. […]

in vivo = conditions: rat, po, 100 mg/kg
Protocol: as §2

[5] = plasmin-activated human fibroblast prostromelysin, 37°C, 2 hours, pH 7.8, read-out: Inhibition of MMP-3

human fibroblast stromelysin, sequence (P08254 100-477): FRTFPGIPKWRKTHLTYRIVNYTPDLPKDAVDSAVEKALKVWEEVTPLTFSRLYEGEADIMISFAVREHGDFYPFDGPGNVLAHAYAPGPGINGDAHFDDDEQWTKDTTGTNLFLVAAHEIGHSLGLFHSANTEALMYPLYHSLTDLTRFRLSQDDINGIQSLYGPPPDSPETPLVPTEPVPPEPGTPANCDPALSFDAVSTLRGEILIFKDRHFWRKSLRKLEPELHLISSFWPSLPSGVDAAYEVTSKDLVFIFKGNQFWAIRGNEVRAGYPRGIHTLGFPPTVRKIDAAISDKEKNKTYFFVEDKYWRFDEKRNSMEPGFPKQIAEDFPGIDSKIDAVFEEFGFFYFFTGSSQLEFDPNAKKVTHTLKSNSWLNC
TNF-α Convertase, sequence (P78536 215-824): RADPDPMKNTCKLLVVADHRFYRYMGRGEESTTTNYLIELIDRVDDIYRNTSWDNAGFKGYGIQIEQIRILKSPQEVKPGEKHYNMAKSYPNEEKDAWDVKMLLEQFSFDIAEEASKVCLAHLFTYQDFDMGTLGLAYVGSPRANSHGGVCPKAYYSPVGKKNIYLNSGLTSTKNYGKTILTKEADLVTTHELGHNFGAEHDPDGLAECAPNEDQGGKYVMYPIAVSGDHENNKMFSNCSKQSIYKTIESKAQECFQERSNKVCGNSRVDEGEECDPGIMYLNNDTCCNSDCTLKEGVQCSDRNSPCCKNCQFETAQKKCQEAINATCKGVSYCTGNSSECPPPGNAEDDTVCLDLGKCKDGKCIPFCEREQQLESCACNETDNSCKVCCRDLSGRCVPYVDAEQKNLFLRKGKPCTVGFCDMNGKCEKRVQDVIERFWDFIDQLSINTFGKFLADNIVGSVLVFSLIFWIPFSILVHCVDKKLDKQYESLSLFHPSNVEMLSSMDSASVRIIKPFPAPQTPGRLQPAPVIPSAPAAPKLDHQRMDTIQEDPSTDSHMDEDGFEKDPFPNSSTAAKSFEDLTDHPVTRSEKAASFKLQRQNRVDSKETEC

Molecule: CC(=O)O.CNC(=O)[C@H](C)NC(=O)[C@H](CC(C)C)C(Cc1cccc(CN)c1)C(=O)NO (single isomer, unassigned) [Compound No. 53, N^a-[4-(Hydroxyamino)-2(R)-isobutyl-3(R or S)-(m-aminomethylbenzyl)succinyl]-L-alanine N-methylamide · 1 acetate]
- AUC0.5-4 [1]: 4816 ng·h/mL

Molecule: CC(=O)O.CC(=O)O.CNC(=O)[C@H](Cc1ccc(CN)cc1)NC(=O)[C@H](CC(C)C)C(Cc1ccc(CN)cc1)C(=O)NO (single isomer, unassigned) [Compound No. 49, N^a-[4-(Hydroxyamino)-2(R)-isobutyl-3(R or S)-(p-aminomethylbenzyl)succinyl]-4'-aminomethyl-L-phenylalanine N-methylamide · 2 acetate]
- AUC0.5-4 [1]: 15292 ng·h/mL

Molecule: CC(=O)O.CC(=O)O.CNC(=O)[C@H](CCCN)NC(=O)[C@H](CC(C)C)C(Cc1ccc(CN)cc1)C(=O)NO (single isomer, unassigned) [Compound No. 48, N^a-[4-(Hydroxyamino)-2(R)-isobutyl-3(R or S)-(p-aminomethylbentyl)succinyl]-L-ornithine N-methylamide· 2 acetate]
- AUC0.5-4 [1]: 20203 ng·h/mL

Molecule: CNC(=O)C(Cc1ccc(CNC(C)=N)cc1)NC(=O)C(CC(C)C)C(C)C(=O)NO (single isomer, unassigned) [Compound No. 41, N^a-[4-(Hydroxyamino)-2(R)-isobutyl-3(R or S)-methylsuccinyl]-4'-acetimidoyliminomethyl-L-phenylalanine N-methylamide · 1 acetate]
- IC50 [2, 5]: 18 nM
- IC50 (TNF-α Convertase): 1010 nM
- AUC ([3]; rat, po, 100 mg/kg): 3130 ng·h/mL

Molecule: CNC(=O)C(CCCN)NC(=O)C(CC(C)C)C(CCCc1ccc(NC(=N)N)cc1)C(=O)NO [Compound No. 46, N^a-[4-(Hydroxyamino)-2(R)-isobutyl-3(RS)-[3-(4'-guanidinophenyl)propyl]succinyl]-L-ornithine-N-methylamide · 2 acetate]
- IC50 [2, 5]: 42 nM
- IC50 (TNF-α Convertase): 460 nM
- AUC ([3]; rat, po, 100 mg/kg): 3380 ng·h/mL
- IC50 [4]: 15 nM

Molecule: N^a-[4-(Hydroxyamino)-2(R)-isobutyl-3(R or S)-[5-(isopropylimino)pentyl]succinyl]-L-alanine N-methylamide [Compound No. 63]
- AUC0.5-4 [1]: 5662 ng·h/mL

Molecule: CC(=N)NCc1ccc(CC(NC(=O)C(CC(C)C)C(C)C(=O)NO)C(=O)NN2CCOCC2)cc1 (single isomer, unassigned) [Compound No. 42, N^a-[4-(Hydroxyamino)-2(R)-isobutyl-3(R or S)-methylsuccinyl]-4'-acetimidoyliminomethyl-L-phenylalanine N-(morpholin-4-yl)-amide · 1 acetate]
- IC50 [2, 5]: 24 nM
- AUC ([3]; rat, po, 100 mg/kg): 6260 ng·h/mL

Molecule: CC(=O)O.CCC(=N)NCCCC[C@H](NC(=O)[C@H](CC(C)C)C(C)C(=O)NO)C(=O)NC (mixture of isomers) [Compound No. 45, N^a-[4-(Hydroxyamino)-2(R)-isobutyl-3(RS)-methylsuccinyl]-N^e-propionimidoyl-L-lysine N-methylamide · 1 acetate]
- AUC0.5-4 ([3]; rats (Lewis, male), orally, 100mg/kg, 0.5 to 4 hours after administration): 7067 ng·h/mL

Molecule: CNC(=O)[C@H](CCCCN)NC(=O)[C@H](C(C)C)C(CCCc1ccccc1)C(=O)NO (single isomer, unassigned) [Compound No. 74, N^a-[4-(Hydroxyamino)-2(R)-isopropyl-3(R or S)-(3-phenylpropyl)succinyl]-L-lysine N-methylamide· 1 acetate]
- IC50 ([2]; read-out: Inhibition of MMP-3, plasmin-activated human fibroblast prostromelysin, 37°C, 2 hours, pH 7.8): 62 nM
- IC50 (TNF-α Convertase; read-out: Inhibition of TACE, U937 cells, LPS 0.1 µg/ml, 6 hours, TNF-α in supernatant by assay kit): 603 nM
- AUC at 4 h (in vivo): 9020 ng·h/mL

Molecule: CC(=N)NCCCC[C@H](NC(=O)[C@H](CC(C)C)C(C)C(=O)NO)C(=O)NC(C)CO.CC(=O)O (mixture of isomers) [Compound No. 39, N^a-[4-(Hydroxyamino)-2(R)-isobutyl-3(RS)-methylsuccinyl]-N^e-acetimidoyl-L-lysine N-[2-hydroxy-1(RS)-methylethyl]amide · 1 acetate]
- AUC0.5-4 [1]: 14996 ng·h/mL

Molecule: CNC(=O)C(CCCCNC(C)=N)NC(=O)C(CC(C)C)C(C)C(=O)NO [Compound No. 22, N^a-[4-(Hydroxyamino)-2(R)-isobutyl-3(RS)-methylsuccinyl]-N^e-acetimidoyl-L-lysine N-methylamide · 1 acetate]
- IC50 (TNF-α Convertase): 2080 nM
- AUC at 4 h ([3]; rat, po, 100 mg/kg): 9130 ng·h/mL

Molecule: CC(=O)O.CNC(=O)[C@H](Cc1ccc(CNC(C)=N)cc1)NC(=O)[C@H](CC(C)C)[C@H](O)C(=O)NO [Compound No. 43, N^a-[4-(Hydroxyamino)-2(R)-isobutyl-3(S)-hydroxysuccinyl]-4'-acetimidoyliminomethyl-L-phenylalanine N-methylamide · 1 acetate]
- AUC0.5-4 [1]: 3289 ng·h/mL

Molecule: CC(=N)NCCCCC(NC(=O)C(CC(C)C)C(CCCc1ccccc1)C(=O)NO)C(=O)NCCN(C)C [Compound No. 44, N^a-[4-(Hydroxyamino)-2(R)-isobutyl-3(RS)-(3-phenylpropyl)-succinyl]-N^e-acetimidoyl-L-lysine N-(2-N',N'-dimethylaminoethyl)amide · 2 acetate]
- IC50 [2]: 17 nM
- IC50 (TNF-α Convertase): 129 nM
- AUC at 4 h (in vivo): 1930 ng·h/mL

Reference: patent EP1038864A1, “NOVEL METALLOPROTEINASE INHIBITORS” (FUJI YAKUHIN KOGYO KABUSHIKI KAISHA, priority 1997, dated 1999)
